Laboratory results reported in US5206382A, “Indole derivatives, pharmaceutical compositions and methods of treating neurological and psychiatric disorders” (Fidia Georgetown Institute for the Neurosciences, priority 1991, dated 1993).

How the values were obtained:
[1] = biological target: T1, BZD binding site located on the GABAA receptor (Rattus norvegicus, UniProt P18508+P62813); assay: ^3 H-FLUMAZENIL binding, crude synaptic membranes; set-up: species or system Sprague Dawley rat; conditions: 2 nM ^3 H-FLUMAZENIL, rat cerebellum membranes
T1 construct: The cerebella were removed and incubated for 20 minutes in ice cold double distilled water; from tissue; host or cells: crude synaptic membranes of Sprague Dawley rat cerebellum
Experimental: (§1) Crude Synaptic Membrane Preparation: Sprague Dawley rats (200-250 gr.) were killed by decapitation. The cerebella were removed and incubated for 20 minutes in ice cold double distilled water after homogenization with Polytron. The homogenate was centrifuged at 18,000 xg at 4° C. for 10 minutes. The pellet was suspended in ice-cold buffer 50 mM Na/KPO4(pH 7.4) and centrifuged at 18,000 xg at 4° C. for 10 minutes. After two other centrifugations, the membranes were suspended in 5 ml of buffer and the proteins were measured.
(§2) The membranes were diluted with 50 mM Na/KPO4 buffer (pH 7.4) to a concentration of 150 μg of protein/ml, and 150 μl aliquots of the suspension were incubated with 50 μl of the different ligands to be tested: ^3 H-ZOLPIDEM(2 nM), ^3 H-FLUMAZENIL (2 nM), ^3 H-GABA(10 nM), ^3 H-MK 801(5 nM), ^3 H-KETANSERIN(1 nM), ^3 H-GLYCINE(20 nM), ^3 H-SPIPERONE(1 nM), ^3 H-AMPA(10 nM), ^3 H-3-PPP(1 nM), and ^3 H-NALOXONE(1 nM). Non-specific binding was assessed by displacing with 10 to 1000/μM of cold ligand.

[2] = biological target: T2, MBR (mitochondrial benzodiazepine recognition site) (Rattus norvegicus, UniProt P16257); assay: Displacement of ^3 H-PK11195 from mitochondrial BZD recognition site (MBR); assay type: binding, Sprague Dawley rat; conditions: for IC50: displacement of 1 nM ^3 H-PK11195, rat mitochondria, range in parentheses; for ^3 H-PK11195 / ^3 H-RO5-4864: ratio of the two IC50 values
T2 construct: Brain and adrenal glands were removed and homogenized with Polytron; from tissue; host or cells: mitochondrial fraction of Sprague Dawley rat brain and adrenal glands
Experimental: (§3) Mitochondrial Preparation: Sprague Dawley rats (200-250 gr.) were killed by decapitation. Brain and adrenal glands were removed and homogenized with Polytron for 15 minutes in ice cold buffer (10 mM Na/KPO4, 0.32M sucrose, pH 7.4). The homogenate was centrifuged for 15 minutes at 6,500 xg at 4° C. The resulting supernatant was centrifuged for 15 minutes at […] at 4° C. The pellet was suspended in buffer (20 times) by gentle homogenization and centrifuged at 10,000 xg at 4° C. for 15 minutes. The washed mitochondrial pellet was stored at -70° C.
(§4) For the binding assay the mitochondrial fraction was diluted with 50 mM Na/KPO4 buffer (pH 7.4) to give a final protein concentration of […] in 100 μl buffer. This suspension was incubated with 1 nM of ^3 H PK-11195 or ^3 H RO 5-4864 (50 μl) with or without 10/μM unlabeled PK-11195 or RO 5-4864 to assess the extent of total and non-specific binding. Different amounts of indole derivatives were added to the incubation medium in a volume of 50 μl. After incubation for 60 minutes at 4° C., samples were filtered and the radioactivity was measured in a scintillation counter.

[3] = biological target: T2, MBR (mitochondrial benzodiazepine recognition site); assay: Displacement of ^3 H-RO5-4864 from mitochondrial BZD recognition site (MBR); assay type: binding, Sprague Dawley rat; conditions: displacement of 1 nM ^3 H-RO5-4864, rat mitochondria; range in parentheses
Experimental: as §3, §4

[4] = biological target: T3, ^3 H-ZOLPIDEM binding (crude synaptic membrane) (Rattus norvegicus, UniProt P18508+P62813); assay: ^3 H-ZOLPIDEM binding, crude synaptic membranes; set-up: species or system Sprague Dawley rat; conditions: 2 nM ^3 H-ZOLPIDEM, rat cerebellum membranes
T3 construct: from tissue; host or cells: crude synaptic membranes of Sprague Dawley rat cerebellum
Experimental: as §1
as §2, with “ligand. The different indole derivatives were added in a volume of 50 μl in a concentration varying from 10^-9 to 10^-3 M. The results are reported in Table I hereinbelow.” for “ligand.”

[5] = system: mitochondrial pregnenolone formation, C6-2B glioma cells; assay: Pregnenolone formation in glial mitochondria (C6-2B glioma cells); assay type: biochemical; conditions: for Effective concentration, maximal / EC50: C6 glial cell mitochondria, 15 minutes at 37° C.; for EC50: read-out: Effective concentration, 50%; for Stimulation %: pregnenolone formation, increase over the control
Experimental: The mixture was preincubated for 5 minutes at 37° C. The incubation mixture was extracted with 5 ml chloroform/methanol (2:1, vol/vol), and the organic phase was evaporated to dryness. Pregnenolone was measured by a specific radioimmunoassay using an antibody obtained from Radioassay Systems Laboratories, Carson, Calif.

Sprague Dawley rats = assay: Elevated X maze test; assay type: in vivo, Sprague Dawley rat; conditions: for Entries in open arms, test after 10 min injection / Entries in open arms, test after 20 min injection / Entries in open arms, test after 30 min injection: 20 mg/kg i.v., rats; for behavioral output of rats in the elevated X maze test: in words
Experimental: The elevated X maze is a behavioral test to detect anxiolytic drugs in rodents. […] The plus-maze consists of two open arms (43×8 cm) and two similarly sized enclosed arms with 9 cm high walls, arranged so that the arms of the same type are opposite each other. There is a central square of 8 cm. The apparatus is elevated to a height of 10 cm and each arm is divided into 3 squares.
Sprague Dawley rats weighing 200-250 gr. were housed in a room with a 12 hour light: 12 hour dark cycle and were allowed free access to food and water. After an i.v. injection of different indole derivatives, the rats were kept separated for 10, 20 or 30 minutes before testing. The testing period commenced when each animal was placed onto the central square of the maze. The number of entries in each arm was then recorded for 5 minutes. The maze was cleaned with water after each trial. The number of entries in the open arms provided a measure of anxiolytic activity of the drugs.

T1 sequence (P62813 28-455): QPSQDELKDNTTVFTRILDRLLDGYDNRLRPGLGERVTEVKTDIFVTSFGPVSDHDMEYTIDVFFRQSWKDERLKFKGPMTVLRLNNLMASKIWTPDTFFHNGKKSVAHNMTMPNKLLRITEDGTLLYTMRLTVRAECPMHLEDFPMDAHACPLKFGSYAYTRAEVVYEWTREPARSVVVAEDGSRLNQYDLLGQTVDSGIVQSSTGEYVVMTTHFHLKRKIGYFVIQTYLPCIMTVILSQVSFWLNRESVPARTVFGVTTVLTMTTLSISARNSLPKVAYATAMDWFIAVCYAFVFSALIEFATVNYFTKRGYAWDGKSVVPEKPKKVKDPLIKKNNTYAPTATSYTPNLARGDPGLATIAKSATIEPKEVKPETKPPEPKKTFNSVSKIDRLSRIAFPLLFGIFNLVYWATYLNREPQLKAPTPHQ
T1 sequence (P18508 39-466): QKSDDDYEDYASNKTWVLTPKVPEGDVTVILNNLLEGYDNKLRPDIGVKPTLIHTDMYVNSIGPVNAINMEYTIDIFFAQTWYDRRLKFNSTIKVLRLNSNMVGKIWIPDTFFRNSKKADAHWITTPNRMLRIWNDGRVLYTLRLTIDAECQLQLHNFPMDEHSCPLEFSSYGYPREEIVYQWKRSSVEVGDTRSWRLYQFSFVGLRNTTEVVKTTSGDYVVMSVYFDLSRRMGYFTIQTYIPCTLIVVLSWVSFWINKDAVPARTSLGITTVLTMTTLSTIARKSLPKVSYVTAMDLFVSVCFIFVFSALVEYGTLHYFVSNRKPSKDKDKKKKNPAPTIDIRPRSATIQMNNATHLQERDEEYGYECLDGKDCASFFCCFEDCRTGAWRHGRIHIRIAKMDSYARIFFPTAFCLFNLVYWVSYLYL
T3 sequence (P62813 28-455): as the sequence (P62813 28-455) above
T3 sequence (P18508 39-466): as the sequence (P18508 39-466) above

Row | Compound | IC50 [1] | IC50 [2] | ^3 H-PK11195 / ^3 H-RO5-4864 [2] | IC50 [3] | IC50 [4] | Effective concentration, maximal [5] | EC50 [5] | Stimulation % [5] | Entries in open arms, test after 10 min injection (Sprague Dawley rats) | behavioral output of rats in the elevated X maze test (Sprague Dawley rats) | Entries in open arms, test after 20 min injection (Sprague Dawley rats) | Entries in open arms, test after 30 min injection (Sprague Dawley rats) | binding to MBR in words ([2]; Tables I and II compared) | intrinsic efficacy (pregnenolone formation) ([5]; in words)
1 | CCCN(CCC)C(=O)Cc1c(-c2cccs2)[nH]c2ccc(Cl)cc12 [compound 17] | > 1000 nM | 50 nM | 1.3 | 37.5 nM | – | – | – | – | – | – | – | – | – | –
2 | CCCN(CCC)C(=O)Cc1c(-c2ccc(C)cc2)[nH]c2ccc(C)cc12 [Compound No. 8] | – | 68.5 nM | 1.6 | 41.5 nM | > 1000 nM | 10^-7 M | 33 nM | 220% | – | – | – | – | – | –
3 | CCCN(CCC)C(=O)Cc1c2n(c3ccccc13)Cc1ccccc1-2 [Compound No. 16] | > 1000 nM | 30 nM | 0.75 | 40 nM | – | – | – | – | – | – | – | – | – | –
4 | CCCN(CCC)C(=O)Cc1c(-c2ccc(Br)cc2)[nH]c2ccccc12 [compound 18] | > 1000 nM | 75 nM | 2 | 36 nM | – | – | – | – | 2 | increase the behavioral output | – | – | – | –
5 | O=C(Cc1c(-c2ccccc2)[nH]c2ccccc12)N1CCCCC1 [Compound No. 3] | – | 84 nM | 1.4 | 59 nM | > 1000 nM | – | – | – | – | – | – | – | – | –
6 | CCCN(CCC)C(=O)Cc1c(-c2cccs2)[nH]c2ccccc12 [Compound No. 10] | > 1000 nM | 24 nM | 1.6 | 14.5 nM | > 1000 nM | – | – | – | – | – | – | – | – | –
7 | CCCN(CCC)C(=O)Cc1c(-c2ccc(Cl)cc2)n(C)c2ccccc12 [compound 22] | > 1000 nM | 200 nM | 1 | 200 nM | – | 10^-8 M | – | 170% | 3 | increase the behavioral output | 2 | 6 | – | –
8 | CN(C)C(=O)Cc1c(-c2ccccc2)[nH]c2ccccc12 [Compound No. 7] | > 1000 nM | 600 nM | 1 | 600 nM | > 1000 nM | 10^-7 M | 10 nM | 131% | – | – | – | – | relatively high affinity | low intrinsic efficacy
9 | CCCN(CCC)C(=O)Cc1c(-c2ccc(Cl)cc2)[nH]c2ccc(Cl)cc12 [Compound No. 6] | > 1000 nM | 45 nM | 1.1 | 40 nM | > 1000 nM | – | – | – | – | – | – | – | – | –
10 | Cc1ccc(-c2[nH]c3ccc(C)cc3c2CC(=O)N(C)C)cc1 [Compound No. 9] | – | > 1000 nM | > 3 | 255 nM | > 1000 nM | > 10^-6 M | – | none | – | – | – | – | – | –
11 | c1ccc(-c2[nH]c3ccccc3c2CC2=NCCN2)cc1 [Compound No. 15] | > 1000 nM | > 1000 nM | – | > 1000 nM | – | – | – | – | – | – | – | – | – | –
12 | CCCN(CCC)C(=O)C(C)c1c(-c2ccc(Cl)cc2)[nH]c2ccccc12 (centres unmarked) [compound 19] | > 1000 nM | > 1000 nM | – | > 1000 nM | – | – | – | – | 1 | increase the behavioral output | – | – | – | –
13 | CCCN(CCC)C(=O)CCc1c(-c2ccc(Cl)cc2)[nH]c2ccc(Cl)cc12 [compound 11] | > 1000 nM | 180 nM | 1.5 | 120 nM | > 1000 nM | – | – | – | – | – | – | – | – | –
14 | CCCN(CCC)C(=O)C=Cc1c(-c2ccc(Cl)cc2)[nH]c2ccccc12 [compound 24] | > 1000 nM | 700 nM | 1.1 | 600 nM | > 1000 nM | – | – | – | 3 | increase the behavioral output | 2 | 3 | – | –
